The source of these data is ChEMBL document CHEMBL3132770, “4-Aminocyclopentane-1,3-diols as platforms for diversity: synthesis of a screening library” (Medchemcomm, 2014).

Holding throughout (type): functional, cell-based
A short description of test [1]: Cytotoxicity against human LCLC-103H cells assessed as growth inhibition after 96 hrs by crystal violet staining assay.
Another test deals with DAN-G. The test can be described thus: Cytotoxicity against human DAN-G cells assessed as growth inhibition after 96 hrs by crystal violet staining assay.
A further test has as its system MCF7. The experiment in a line: Cytotoxicity against human MCF7 cells assessed as growth inhibition after 96 hrs by crystal violet staining assay. The conditions noted are these: MCF7, 96 h.
The subject of the next test is 5637. The experiment in a line: Cytotoxicity against human 5637 cells assessed as growth inhibition after 96 hrs by crystal violet staining assay. The conditions noted are these: Homo sapiens, 5637, 96 h.

Turning to `O=C(CCC(=O)c1ccc(-c2ccccc2)cc1)N[C@H]1C[C@H](OCc2ccccc2)C[C@@H]1O` (racemic), the concentration for half-maximal inhibition (IC50) (in general, the point on the concentration scale where inhibition reaches its midpoint) in test [1] is greater than 20 µM; with DAN-G it was greater than 20 µM; in the test on MCF7, 14.2 µM; with 5637 it was 20.4 µM.

On to `O=C(CCCc1c[nH]c2ccccc12)N[C@@H]1C[C@H](Oc2ccc(-c3ccccc3)cc2)C[C@H]1O` (racemic), for which the half-maximal inhibitory concentration (IC50) in test [1] is 13.6 µM; with DAN-G, 12.8 µM; in the test on MCF7, 6.76 µM; in the test with 5637, 11.9 µM.

Take `O=C(O)CCCc1ccc(N(CCCl)CCCl)cc1` [CHLORAMBUCIL]: the half-inhibitory concentration (IC50) in test [1] stood at 14.5 µM; in the test with DAN-G, 27.8 µM.

Regarding `O=C(CCC(=O)c1ccc(-c2ccccc2)cc1)N[C@@H]1C[C@H](OCc2ccccc2)C[C@H]1O` (racemic), the IC50 was greater than 20 µM in test [1], greater than 20 µM in the test on DAN-G, 16 µM in the test with MCF7 and greater than 20 µM in the test on 5637.

Regarding `O=C(N[C@H]1C[C@H](Oc2ccc(-c3ccccc3)cc2)C[C@@H]1O)C(c1ccccc1)c1ccccc1` (racemic), the half-maximal inhibitory concentration (IC50) in test [1] is 13.1 µM; in the test with DAN-G, 17.5 µM; in the test on MCF7, 10.3 µM; with 5637, 12.5 µM.

With `O=C(N[C@@H]1C[C@H](Oc2ccc(-c3ccccc3)cc2)C[C@H]1O)C(c1ccccc1)c1ccccc1` (racemic), the IC50 in test [1] stood at 12.3 µM; in the test with DAN-G it was 13 µM; in the test on MCF7, 8.91 µM; in the test on 5637, 12.2 µM.

On to `N[C@@H](Cc1ccc(N(CCCl)CCCl)cc1)C(=O)O` [MELPHALAN], for which the half-inhibitory concentration (IC50) in test [1] is 4 µM; in the test with 5637 it was 1.32 µM.
